In patent publication US7521057B2, “Lamprey GnRH-III polypeptides and methods of making thereof” (University of New Hampshire, priority 2002, dated 2009):
Read-outs that look alike come from different tables or passages of the source. [ ]: non-standard residue; d: D form. pGlu = O=C1CC[C@@H](C(=O)O)N1

What was measured:
[1] = target: type-II GnRH binding site; assay: Competition binding in pituitary of male sea lampreys, type-II GnRH binding site; set-up: species or system P. marinus; details: for Ki: pituitary of adult male land-locked P. marinus, tracer iodinated [DAla6, Pro9Net]-mammalian GnRH, K1 from IC50
Method: (§1) In another study, the binding affinity in the pituitary of male sea lampreys was determined with lamprey GnRH-I and -III analogs in an effort to better understand the structure-activity relations of the lamprey GnRH molecule (Mateme and Sower, unpublished). Competition studies were performed using the iodinated DAla^6, Pro^9Net]-mammalian GnRH as the tracer with each of the following analogs: [D-Phe^2, Gly^6]-lGnRH-I (Peninsula Labs, Cali.); and the following lGnRH-III analogs: [D-Phe^2,6, Pro^3], [D-Phe^2, Gly^6], and [Ac-Delta-3Pro, 4FDPhe^2-D-Trp^3,6] from American Peptide, Cali. […] The level of significance was P<0.0001 See TABLE 5 for the results of these experiments. The results shown in Table 5 summarize experiments using various analogs.
(§2) Inhibition constants (K1) of lamprey GnRH-putative antagonists in the pituitary of adult male land-locked P. marinus. […] The data were plotted on a logit-log plot and the K1 determined from the IC50 using the Prism software.

[2] = system: adult sea lampreys; details: cited from earlier work; for plasma estradiol: adult female lampreys, injections; for ovulation / timing of ovulation: female lampreys; for gametogenesis: male and female sea lampreys, previous studies
[3] = target: type-I GnRH-binding site; assay: Competition binding in pituitary of male sea lampreys, type-I GnRH binding site; set-up: species or system P. marinus; details: for Ki: pituitary of adult male land-locked P. marinus, tracer iodinated [DAla6, Pro9Net]-mammalian GnRH, K1 from IC50
Method: as §1, §2

[4] = Plasma GnRHa after injection of sustained-release microspheres or implants in lampreys; type: in vivo, sea lamprey
Method: Thus, experiments were conducted to determine the optimal injection site and delivery agent that would best ensure a slow, constant release of the active compound, in this case, D-Ala^6 Pro^9Net mammal GnRH (GnRHa) over a period of four weeks. In the plasma, GnRH is easily degraded by protolytic enzymes. Therefore a simple injection will not elevate plasma GnRH levels for the duration of time required to ensure the appropriate reproductive effect. If a GnRH analog were used to sterilize wild fish, the method would have to maintain high levels of GnRH in the plasma for the length of the spawning season, or about 6 weeks in the case of sea lamprey in the Great Lakes. It was believed that controlled release of GnRH could be attained by injection of biodegradable microspheres or implants containing a GnRH analog, and experiments were performed to determine if high enough GnRH levels could be maintained for the required duration using such a method.
In Applicant's experiments microspheres (in a dose of 75 ug GnRHa/lamprey) and 2 mm implants were injected either intramuscularly (IM) or intraperitoneally (IP). At week 1, plasma GnRHa was detected in two-thirds of the lampreys injected IP, either with microspheres (5.0+/−1.3 ng/ml) or implants (1.6+/−0.3 ng/ml).
Only the lampreys injected IM with microspheres still had detectable levels of GnRHa after 3 weeks (2.9+/−1.5 ng/ml). Based on the results of these experiments, the best method of sustained release of GnRHa was determined to be via IM injection using microspheres.

[5] = system: adult male and female sea lamprey; details: compared to controls, cited from earlier work; for spawning behavior: experiment 2, females
[6] = pituitary of male sea lampreys, in words

Compound | Ki [1] [nM] | plasma estradiol [2] | ovulation / timing of ovulation [2] | Ki [3] [nM] | gametogenesis [2] | spawning behavior [5] | spawning activity ([5]; experiment 2, males) | spawning activity ([5]; experiment 3, males) | also measured
CCNC(=O)[C@@H]1CCCN1C(=O)[C@H](CCCNC(=N)N)NC(=O)[C@H](CC(C)C)NC(=O)[C@@H](C)NC(=O)[C@H](Cc1ccc(O)cc1)NC(=O)[C@H](CO)NC(=O)[C@H](Cc1c[nH]c2ccccc12)NC(=O)[C@H](Cc1c[nH]cn1)NC(=O)[C@@H]1CCC(=O)N1 [[DAla^6, Pro^9Net]-m GnRH, [DAla^6, Pro^9Net]-mammalian GnRH] | 89 | significantly elevated | advanced ovulation by at least several weeks | 0.00311 | – | – | – | – | affinity for type-II GnRH binding site [1, 6]: high affinity; affinity for type-I GnRH binding site [3, 6]: high affinity; level at 504 h ([4]; plasma, 75 ug GnRHa/lamprey, after 3 weeks, microspheres injected IM): 2.9 ng/mL; level at 168 h ([4]; plasma, 75 ug GnRHa/lamprey, week 1, microspheres injected IM): 4.2 ng/mL; level at 336 h ([4]; plasma, 75 ug GnRHa/lamprey, week 2, microspheres injected IM): 3.1 ng/mL; level at 168 h ([4]; plasma, week 1, 2 mm implants injected IP): 1.6 ng/mL; level at 168 h ([4]; plasma, week 1, microspheres injected IP, 75 ug GnRHa/lamprey): 5 ng/mL; share of lampreys with detectable plasma GnRHa ([4]; week 1, injected IP, microspheres or implants): two-thirds; share of lampreys with detectable plasma GnRHa ([4]; week 1, microspheres injected IM): Ninety percent; share of lampreys with detectable plasma GnRHa ([4]; week 2, IP with microspheres and IP with implants): less than thirty percent; share of lampreys with detectable plasma GnRHa ([4]; week 2, microspheres injected IM): ninety-two percent
[Ac-3 Pro^1, 4-FD-Phe^3, D-Trp^3,6] mammalian GnRH | – | no apparent effect | no apparent effect | – | decrease gametogenesis | – | – | – | –
[D-Ala^6, Pro^9 Net lamprey GnRH] [lamprey GnRH agonist] | – | – | – | – | – | inhibited | stimulated earlier spawning activity | inhibited spawning activity | –
[D-Phe^2,6, Pro^3] lamprey GnRH | – | – | inhibited ovulation | – | decrease gametogenesis | inhibited | stimulated earlier spawning activity | induced earlier spawning activity | plasma progesterone levels ([2]; male sea lampreys): reduced; spermiation ([2]; male sea lampreys): inhibited spermiation
[D-Phe^2, Gly^6]-lGnRH-I [[D-Phe^2, Gly^6]-1GnRH-I] | 5650 | – | – | 1.37 | – | – | – | – | –
lamprey GnRH-I: native decapeptide pGlu His Tyr Ser Leu Glu Trp Lys Pro Gly-NH2 (Table 1) ([pGlu]HYSLEWKPG-NH2; SMILES CC(C)C[C@H](NC(=O)[C@H](CO)NC(=O)[C@H](Cc1ccc(O)cc1)NC(=O)[C@H](Cc1c[nH]cn1)NC(=O)[C@@H]1CCC(=O)N1)C(=O)N[C@@H](CCC(=O)O)C(=O)N[C@@H](Cc1c[nH]c2ccccc12)C(=O)N[C@@H](CCCCN)C(=O)N1CCC[C@H]1C(=O)NCC(N)=O) | – | – | – | – | – | – | – | delayed spawning activity | spermiation/ovulation ([2]; adult sea lampreys): induce; steroidogenesis ([2]; adult sea lampreys): induce
